System: Ross 708 male broilers
Test: In vivo efficacy study in chickens: methionine source in methionine-deficient diet
Settings: young broilers, 0 to 14 days of age, 0.15% added methionine, diet deficient in methionine (0.26%)
Description: HMTBA homopolymer was compared to HMTBA calcium salt (MHA) in young broilers chicks as methionine source with a diet deficient in dietary methionine (0.26%) as negative control. A total of 108 Ross 708 male broilers were randomly assigned to 18 battery pens with 6 birds per pen. Six replicate pens were fed one of the 3 test diets from 0 to 14 days of age. HMTBA and MHA were added at equal molar basis to provide 0.15% added methionine. Growth performance parameters including body weight, feed conversion ratio (FCR), feed intake, and mortality, were measured and the body weight and FCR results are shown in FIG. 4.

In the case of `CSCCC(O)C(=O)[O-].CSCCC(O)C(=O)[O-].[Ca+2]` (stereo not shown) [MHA, HMTBA calcium salt], the body weight is reported as “significantly increased”, the “feed conversion ratio (FCR)” value is reported as “significantly improved” and the performance index is reported as “significantly increased”. For the same molecule, the weight gain was “significantly increased”.
